# Data: patent US11000627B2, “Treatment of implants with phosphonic acid compounds” (Nano Bridging Molecules SA, priority 2016, dated 2021)
# Marks after values point to notes of the source that are not given here.
# Columns and labels:
# [1] = XPS phosphorus over metal ratio on ceramic dental implants; assay type: physicochemical; conditions: sonicated 70° C. 60 min, Metal = Al2s + Zr3d + Y3d
# Procedure: A ceramic dental implant (alumina toughened zirconia, yttria stabilized; length 11.0 mm, diameter 3.8 mm) was provided with a smooth surface. The dental implant was immersed in 50 ml of a 2% (v/v) aqueous solution of deconex 15 PF-x (which is a phosphate free, potassium hydroxide based standard cleaning agent). The solution was placed in an ultrasonic bath (output frequency 30 kHz) and sonicated at 70° C. for 15 min. This step was repeated a second time. The implant was removed from the cleaning agent solution and rinsed with water as follows: 2 times with 50 ml, swirling at room temperature; 3 times with 50 ml, sonicating for 2 min at 70° C. The implant was then placed into 15 ml of a 0.7 mM aqueous solution of 1,1,3,3-propane tetraphosphonic acid. The solution was placed in the ultrasonic bath and sonicated at 70° C. for 60 min. The implant was rinsed with water as follows: 1 time with 10 ml, swirling at room temperature; 2 times with 10 ml, sonicating for 2 min at 65° C.; 1 time with 10 ml, swirling at room temperature. The dental implant was dried in a desiccator over P2O5 and under vacuum (ca 20 mbar) for at least 3 hours.
# Following the surface treatment with one phosphonic acid compound as described in Examples 1 to 7 the samples were analyzed by X-ray photoelectron spectroscopy (XPS). XPS analyses were performed on an Axis Ultra spectrometer from Kratos (Kratos, Manchester, U.K.) equipped with a concentric hemispherical analyzer and using a monochromatized aluminum anode X-ray source (Al Kα1,2 1486.6 eV, full width at half maximum, fwhm=0.85 eV, 15 kV, 150 W). The samples were investigated under ultrahigh vacuum conditions: 10^−8-10^−7 Pa. Spectra were taken at a 90° takeoff angle with respect to the surface. A sample area of 300×700 μm^2 or 700×700 μm^2 was analyzed with a pass energy of 80.0 eV for survey scans. The spectrometer was calibrated by using Cu 2p3/2 (932.7 eV) and Au 4f7/2 (84.0 eV) signals. Surface sensitivity factors used to determine the atomic concentrations were those of the instrument. Spectra were peak fitted after background subtraction by assuming a Gaussian/Lorentzian (90-70/10-30) peak shape. All peaks between 0 eV to 1200 eV were inspected.
# The phosphorus over metal ratio (“Phosphorus/Metal”) was calculated dividing the % atomic concentration of phosphorus by the sum of the % atomic concentrations of all metals expected in the analyzed sample.
# Four ceramic dental implants (alumina toughened zirconia, yttria stabilized; length 11.0 mm, diameter 3.8 mm) were provided with a smooth surface. The dental implants were immersed in 300 ml of a 2% (v/v) aqueous solution of deconex 15 PF-x (which is a phosphate free, potassium hydroxide based standard cleaning agent). […] The samples were analyzed by X-ray photoelectron spectroscopy (XPS). […]
# [2] = XPS phosphorus over metal ratio on Titanium grade 4 cylinders; assay type: physicochemical; conditions: 0.7 mM, Metal = Ti2p
# Procedure: Two Titanium grade 4 cylinders (bulk composition atomic concentration Titanium 100%; length 6.0 mm, diameter 2.4 mm) were provided with a roughened surface, produced by sand blasting and acid etching according to industry standards. The cylinders were immersed in 6 ml of a 2% (v/v) aqueous solution of deconex 15 PF-x (which is a phosphate free, potassium hydroxide based standard cleaning agent). The solution was placed in an ultrasonic bath (output frequency 30 kHz) and sonicated at 65° C. for 15 min. The cylinders were removed from the cleaning agent solution and rinsed with water as follows: 2 times with 10 ml, swirling at room temperature; 4 times with 10 ml, sonicating for 2 min at 65° C.; 1 time with 10 ml, swirling at room temperature. The cylinders were then placed into 6 ml of a 0.7 mM aqueous solution of 1,1,3,3-propane tetraphosphonic acid. The solution was placed in the ultrasonic bath and sonicated at 65° C. for 15 min. The cylinders were rinsed with water as follows: 2 times with 10 ml, swirling at room temperature; 1 time with 10 ml, sonicating for 2 min at 65° C.; 1 time with 10 ml, swirling at room temperature. The cylinders were dried in a desiccator over P2O5 and under vacuum (ca 20 mbar) for at least 3 hours.
# Two Titanium grade 4 cylinders (bulk composition atomic concentration Titanium 100%; length 6.0 mm, diameter 2.4 mm) were provided with a roughened surface, produced by sand blasting and acid etching according to industry standards. The cylinders were immersed in 6 ml of a 2% (v/v) aqueous solution of deconex 15 PF-x (which is a phosphate free, potassium hydroxide based standard cleaning agent). The solution was placed in an ultrasonic bath (output frequency 30 kHz) and sonicated at room temperature for 15 min. The cylinders were removed from the cleaning agent solution and rinsed with water as follows: 2 times with 10 ml, swirling at room temperature; 4 times with 10 ml, sonicating for 2 min at room temperature; 1 time with 10 ml, swirling at room temperature. The cylinders were then placed into 6 ml of a 0.7 mM aqueous solution of 1,1,3,3-propane tetraphosphonic acid. The solution was swirled thoroughly and left to stand at room temperature for 15 min. The cylinders were rinsed with water as follows: 2 times with 10 ml, swirling at room temperature; 1 time with 10 ml, sonicating for 2 min at room temperature; 1 time with 10 ml, swirling at room temperature. The cylinders were dried in a desiccator over P2O5 and under vacuum (ca 20 mbar) for at least 3 hours.
smiles,measurement,setting,value
"O=P(O)(O)C(CC(P(=O)(O)O)P(=O)(O)O)P(=O)(O)O [1,1,3,3-propane tetraphosphonic acid]",Phosphorus/Metal,[1]; 0.7 mM,0.12
same,Phosphorus/Metal,[1]; 2.5 mM,0.12
same,Phosphorus/Metal,[1]; 5 mM,0.11
same,Phosphorus/Metal,[1]; 10 mM,0.12
same,Phosphorus/Metal,"[2]; Phosphonic acid 5 min, sonicated 65° C.",0.24^b
same,Phosphorus/Metal,"[2]; Phosphonic acid 10 min, sonicated 65° C.",0.28^b
same,Phosphorus/Metal,"[2]; Phosphonic acid 30 min, sonicated 65° C.",0.30^b
same,Phosphorus/Metal,"[2]; Phosphonic acid 60 min, sonicated 65° C.",0.28^b
same,Phosphorus/Metal,"[2]; all steps sonicated at 40° C., 15 min",0.22^b
same,Phosphorus/Metal,"[2]; all steps sonicated at 50° C., 15 min",0.26^b
same,Phosphorus/Metal,"[2]; all steps sonicated at 60° C., 15 min",0.25^b
same,Phosphorus/Metal,"[2]; all steps sonicated at 70° C., 15 min",0.25^b
same,Phosphorus/Metal,"[2]; all steps sonicated at 80° C., 15 min",0.27^b
same,Phosphorus/Metal,"[2]; all steps sonicated at 90° C., 15 min",0.27^b
same,Phosphorus/Metal,"[2]; pre-treatment Deconex 15PF-x 5 min, sonicated 65° C. 15 min",0.36^b
same,Phosphorus/Metal,"[2]; pre-treatment Deconex 15PF-x 15 min, sonicated 65° C. 15 min",0.32^b
same,Phosphorus/Metal,"[2]; pre-treatment Deconex 15PF-x 30 min, sonicated 65° C. 15 min",0.32^b
